In the NIST ThermoML archive (doi:10.1016/j.jct.2008.01.022):
Numbers after ± are expanded uncertainties.

Settings: 101.33 kPa, Liquid; for viscosity: Capillary tube (Ostwald / Ubbelohde) method

mass density (293.15 K) [kg/m3] | viscosity (293.15 K) [mPa·s] | mass density (303.15 K) [kg/m3] | viscosity (303.15 K) [mPa·s] | mass density (313.15 K) [kg/m3] | viscosity (313.15 K) [mPa·s] | mass density (323.15 K) [kg/m3] | viscosity (323.15 K) [mPa·s] | mass density (293.15 K, Vibrating tube method) [kg/m3] | mass density (303.15 K, Vibrating tube method) [kg/m3] | mass density (313.15 K, Vibrating tube method) [kg/m3] | mass density (323.15 K, Vibrating tube method) [kg/m3] | SMILES
1002.43 ± 0.54 | 71.87 ± 0.69 | 994.98 ± 0.54 | 37.86 ± 0.28 | 987.39 ± 0.55 | 21.49 ± 0.16 | 979.64 ± 0.56 | 13.12 ± 0.1 | – | – | – | – | CCC(O)CO (configuration not stated) [1,2-butanediol]
951.86 ± 2.3 | 83.41 ± 1.6 | 944.66 ± 2.3 | 42.25 ± 0.67 | 937.34 ± 2.3 | 24.12 ± 0.39 | 929.9 ± 2.3 | 14.79 ± 0.24 | – | – | – | – | CCCCC(O)CO (configuration not stated) [1,2-hexanediol]
– | 76.96 ± 2.1 | – | 39.16 ± 1 | – | 22.52 ± 0.58 | – | 13.66 ± 0.35 | 970.35 ± 5.1 | 963.07 ± 5 | 955.65 ± 5 | 948.12 ± 4.9 | CCCC(O)CO (configuration not stated) [1,2-pentanediol]
1036.3 ± 0.6 | 56.21 ± 0.32 | 1028.92 ± 0.58 | 32.63 ± 0.24 | 1021.39 ± 0.57 | 19.58 ± 0.15 | 1013.7 ± 0.56 | 12.79 ± 0.1 | – | – | – | – | CC(O)CO (configuration not stated) [1,2-propanediol]
